According to the supplement of paper PMC12463676, “Small-molecule dissolution of stress granules by redox modulation benefits ALS models” (Nature Chemical Biology, 2025):

What was measured:
[1] = compound: NC(=O)CCCCC1CCSS1 [lipoamide]; assay: thermal stability z-score vs DMSO; higher = more thermally stabilized by treatment; details: HeLa, lipoamide concentration 100 µM
Description: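 Cellular thermal proteome profiling in HeLa cells. Cells were treated with 100 µM lipoamide for 1 h, with or without 1 mM arsenate for a further 1 h, then heated to ten temperatures (37-66.3 °C), and soluble protein was quantified by TMT mass spectrometry relative to 0.1% DMSO controls. The thermal stability score (sum of log2 fold changes minus the abundance score) was transformed to a z-score; mean of n = 3 experiments.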

[2] = compound: O=[As]([O-])(O)O.[K+] [potassium arsenate]; assay: as above; details: HeLa; arsenate concentration 1 mM
Description: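 Cellular thermal proteome profiling in HeLa cells treated with 1 mM arsenate for 1 h (DMSO pretreatment), heated to ten temperatures (37-66.3 °C). Soluble protein was quantified by TMT mass spectrometry relative to DMSO controls; the thermal stability score was transformed to a z-score; mean of n = 3 experiments.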

[3] = arsenate co-treatment: 1 mM arsenate 1 h
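Also: each temperature applied for 3 min, abundance score taken as mean log2 fold change at the two lowest temperatures, z-score obtained by mean subtraction and division by SD.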

Chain of UniProt P04406 (P04406 whole entry, looked up): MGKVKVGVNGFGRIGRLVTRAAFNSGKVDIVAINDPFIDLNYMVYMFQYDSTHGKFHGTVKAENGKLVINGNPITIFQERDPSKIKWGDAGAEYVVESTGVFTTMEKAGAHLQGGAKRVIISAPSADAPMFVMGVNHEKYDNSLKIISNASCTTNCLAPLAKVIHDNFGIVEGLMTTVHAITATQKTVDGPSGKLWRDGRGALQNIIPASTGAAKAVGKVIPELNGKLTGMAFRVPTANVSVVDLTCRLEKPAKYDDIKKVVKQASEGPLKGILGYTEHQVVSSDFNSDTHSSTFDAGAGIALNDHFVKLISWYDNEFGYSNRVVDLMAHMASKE
Chain of UniProt Q10472 (Q10472 whole entry): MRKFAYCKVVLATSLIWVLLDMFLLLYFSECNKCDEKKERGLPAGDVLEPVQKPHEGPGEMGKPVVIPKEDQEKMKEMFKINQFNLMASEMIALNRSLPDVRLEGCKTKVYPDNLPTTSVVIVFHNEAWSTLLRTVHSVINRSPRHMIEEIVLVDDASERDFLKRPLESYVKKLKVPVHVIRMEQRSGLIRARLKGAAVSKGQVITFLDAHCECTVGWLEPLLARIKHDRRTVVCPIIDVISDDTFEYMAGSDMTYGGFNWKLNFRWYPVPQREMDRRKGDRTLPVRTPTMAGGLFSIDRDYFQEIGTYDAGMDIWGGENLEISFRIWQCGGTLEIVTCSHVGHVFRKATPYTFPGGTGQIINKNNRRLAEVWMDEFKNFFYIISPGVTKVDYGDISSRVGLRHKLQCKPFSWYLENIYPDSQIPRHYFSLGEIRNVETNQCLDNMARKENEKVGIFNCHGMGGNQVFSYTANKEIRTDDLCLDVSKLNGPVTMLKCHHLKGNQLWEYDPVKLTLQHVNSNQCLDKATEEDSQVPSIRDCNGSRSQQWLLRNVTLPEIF
Chain of UniProt P22102 (P22102 whole entry): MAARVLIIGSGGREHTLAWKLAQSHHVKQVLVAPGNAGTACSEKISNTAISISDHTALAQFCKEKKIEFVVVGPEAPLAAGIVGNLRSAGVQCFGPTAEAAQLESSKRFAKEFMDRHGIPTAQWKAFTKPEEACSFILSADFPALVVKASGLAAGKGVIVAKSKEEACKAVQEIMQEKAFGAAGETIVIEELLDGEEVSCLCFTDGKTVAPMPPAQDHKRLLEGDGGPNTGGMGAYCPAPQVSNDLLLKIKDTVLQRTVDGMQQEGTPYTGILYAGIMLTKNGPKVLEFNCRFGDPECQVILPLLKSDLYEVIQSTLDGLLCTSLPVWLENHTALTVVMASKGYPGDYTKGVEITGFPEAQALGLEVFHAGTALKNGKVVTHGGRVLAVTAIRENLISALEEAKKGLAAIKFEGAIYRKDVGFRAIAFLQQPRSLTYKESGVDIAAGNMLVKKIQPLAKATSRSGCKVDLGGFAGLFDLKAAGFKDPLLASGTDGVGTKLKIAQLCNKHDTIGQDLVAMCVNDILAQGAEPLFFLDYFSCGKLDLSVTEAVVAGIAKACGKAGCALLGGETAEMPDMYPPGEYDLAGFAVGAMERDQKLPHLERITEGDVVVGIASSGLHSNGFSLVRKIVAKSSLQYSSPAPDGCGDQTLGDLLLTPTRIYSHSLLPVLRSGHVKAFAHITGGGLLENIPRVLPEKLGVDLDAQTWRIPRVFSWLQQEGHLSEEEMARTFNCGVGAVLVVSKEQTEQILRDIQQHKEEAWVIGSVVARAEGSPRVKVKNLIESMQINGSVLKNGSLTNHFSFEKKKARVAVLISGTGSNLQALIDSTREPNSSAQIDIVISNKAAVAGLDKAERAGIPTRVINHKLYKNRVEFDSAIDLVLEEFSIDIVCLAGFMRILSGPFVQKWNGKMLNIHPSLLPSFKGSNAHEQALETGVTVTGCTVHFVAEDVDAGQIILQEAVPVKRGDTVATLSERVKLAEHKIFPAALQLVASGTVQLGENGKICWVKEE
Chain of UniProt Q13480 (Q13480 whole entry): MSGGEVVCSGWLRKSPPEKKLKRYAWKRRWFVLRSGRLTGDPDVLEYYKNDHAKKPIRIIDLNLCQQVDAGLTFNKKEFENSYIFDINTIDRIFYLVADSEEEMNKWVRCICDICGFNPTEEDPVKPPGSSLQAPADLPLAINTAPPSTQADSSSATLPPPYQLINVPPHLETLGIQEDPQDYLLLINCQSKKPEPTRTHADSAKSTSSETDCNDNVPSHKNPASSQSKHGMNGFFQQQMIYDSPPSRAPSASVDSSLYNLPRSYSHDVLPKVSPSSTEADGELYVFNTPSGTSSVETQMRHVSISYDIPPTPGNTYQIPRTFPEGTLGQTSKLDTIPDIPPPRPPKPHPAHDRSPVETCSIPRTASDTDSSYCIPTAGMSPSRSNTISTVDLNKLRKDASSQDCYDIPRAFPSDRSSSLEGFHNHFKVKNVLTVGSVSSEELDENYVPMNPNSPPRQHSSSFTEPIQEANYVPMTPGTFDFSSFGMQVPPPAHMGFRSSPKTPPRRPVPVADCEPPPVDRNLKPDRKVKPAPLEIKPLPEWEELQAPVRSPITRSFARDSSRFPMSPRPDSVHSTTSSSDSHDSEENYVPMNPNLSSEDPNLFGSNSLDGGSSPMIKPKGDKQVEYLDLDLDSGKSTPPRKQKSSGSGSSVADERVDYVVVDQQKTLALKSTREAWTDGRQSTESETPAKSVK
Chain of UniProt P06241 (P06241 whole entry, looked up): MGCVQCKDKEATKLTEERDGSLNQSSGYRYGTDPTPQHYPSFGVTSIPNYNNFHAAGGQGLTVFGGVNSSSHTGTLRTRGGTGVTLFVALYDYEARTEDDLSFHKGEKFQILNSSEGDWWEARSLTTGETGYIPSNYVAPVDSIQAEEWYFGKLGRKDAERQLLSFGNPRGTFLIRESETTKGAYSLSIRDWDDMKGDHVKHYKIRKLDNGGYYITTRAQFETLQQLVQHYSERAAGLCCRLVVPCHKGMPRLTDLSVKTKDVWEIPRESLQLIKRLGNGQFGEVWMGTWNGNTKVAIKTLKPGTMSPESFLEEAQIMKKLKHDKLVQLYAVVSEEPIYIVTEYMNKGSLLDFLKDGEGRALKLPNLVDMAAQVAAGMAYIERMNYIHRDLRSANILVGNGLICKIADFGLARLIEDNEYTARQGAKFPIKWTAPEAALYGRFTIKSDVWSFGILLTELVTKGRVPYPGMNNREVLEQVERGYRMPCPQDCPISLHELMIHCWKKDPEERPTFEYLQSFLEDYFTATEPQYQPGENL
Chain of UniProt A6NHX0 (A6NHX0 whole entry): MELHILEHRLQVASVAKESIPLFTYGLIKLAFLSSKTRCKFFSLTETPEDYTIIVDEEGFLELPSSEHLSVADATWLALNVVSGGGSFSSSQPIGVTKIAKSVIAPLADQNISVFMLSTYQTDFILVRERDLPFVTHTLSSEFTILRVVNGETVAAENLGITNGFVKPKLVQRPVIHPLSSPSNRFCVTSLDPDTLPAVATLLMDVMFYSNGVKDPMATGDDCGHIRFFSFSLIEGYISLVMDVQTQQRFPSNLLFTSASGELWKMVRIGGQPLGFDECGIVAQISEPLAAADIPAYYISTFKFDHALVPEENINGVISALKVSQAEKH
Chain of UniProt Q86SF2 (Q86SF2 whole entry): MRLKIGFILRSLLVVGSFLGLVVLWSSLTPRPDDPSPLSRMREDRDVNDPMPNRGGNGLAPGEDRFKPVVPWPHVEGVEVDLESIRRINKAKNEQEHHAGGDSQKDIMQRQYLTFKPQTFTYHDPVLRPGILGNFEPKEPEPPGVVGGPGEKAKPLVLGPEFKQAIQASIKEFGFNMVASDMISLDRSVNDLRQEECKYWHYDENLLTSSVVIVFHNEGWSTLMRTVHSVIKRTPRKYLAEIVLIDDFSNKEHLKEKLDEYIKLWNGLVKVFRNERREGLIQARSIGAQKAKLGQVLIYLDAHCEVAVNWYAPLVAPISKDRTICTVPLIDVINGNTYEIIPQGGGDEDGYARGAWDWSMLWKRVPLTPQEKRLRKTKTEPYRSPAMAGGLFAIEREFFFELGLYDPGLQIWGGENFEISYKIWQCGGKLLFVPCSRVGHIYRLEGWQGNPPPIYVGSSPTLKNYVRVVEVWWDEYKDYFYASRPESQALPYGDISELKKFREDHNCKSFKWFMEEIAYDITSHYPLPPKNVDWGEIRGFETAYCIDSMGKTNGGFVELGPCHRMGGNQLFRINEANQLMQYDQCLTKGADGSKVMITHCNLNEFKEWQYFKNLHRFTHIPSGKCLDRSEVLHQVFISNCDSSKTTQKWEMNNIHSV
Chain of UniProt O75879 (O75879 whole entry): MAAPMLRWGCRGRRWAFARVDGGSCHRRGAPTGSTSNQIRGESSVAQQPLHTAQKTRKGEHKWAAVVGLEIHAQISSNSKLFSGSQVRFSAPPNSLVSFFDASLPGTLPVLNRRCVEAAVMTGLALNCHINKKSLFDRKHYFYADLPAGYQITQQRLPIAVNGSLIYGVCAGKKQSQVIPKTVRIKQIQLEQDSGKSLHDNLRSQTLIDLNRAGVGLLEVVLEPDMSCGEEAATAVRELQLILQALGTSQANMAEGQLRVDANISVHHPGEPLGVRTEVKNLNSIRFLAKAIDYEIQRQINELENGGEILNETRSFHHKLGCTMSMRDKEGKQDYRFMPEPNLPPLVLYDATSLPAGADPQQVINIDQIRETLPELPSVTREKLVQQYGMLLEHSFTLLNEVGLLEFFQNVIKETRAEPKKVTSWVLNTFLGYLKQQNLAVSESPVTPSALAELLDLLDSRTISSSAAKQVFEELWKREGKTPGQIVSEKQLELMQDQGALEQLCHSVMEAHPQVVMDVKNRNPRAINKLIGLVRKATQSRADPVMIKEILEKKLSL
Chain of UniProt Q9BWH2 (Q9BWH2 whole entry): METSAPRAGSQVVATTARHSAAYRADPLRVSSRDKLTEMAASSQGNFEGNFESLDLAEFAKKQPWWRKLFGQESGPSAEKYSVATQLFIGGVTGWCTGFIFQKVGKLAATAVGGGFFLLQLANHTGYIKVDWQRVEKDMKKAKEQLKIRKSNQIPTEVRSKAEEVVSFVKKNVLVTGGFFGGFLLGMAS
Chain of UniProt P22466 (P22466 whole entry): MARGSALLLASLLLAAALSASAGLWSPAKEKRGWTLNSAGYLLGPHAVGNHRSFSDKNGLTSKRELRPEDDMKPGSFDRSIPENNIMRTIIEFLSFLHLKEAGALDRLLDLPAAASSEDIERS

| Target | thermal stability z-score [1, 3] | thermal stability z-score ([1]; arsenate co-treatment: none) | thermal stability z-score [2] |
| --- | --- | --- | --- |
| FUNDC2 (UniProt Q9BWH2) | 0.0791 | -0.555 | -0.587 |
| FURIN (UniProt P09958) | 0.3 | 0.345 | 0.11 |
| FUS (UniProt P35637) | 0.844 | 1.27 | 0.635 |
| FUT8 (UniProt Q9BYC5) | -0.561 | -0.0456 | 0.521 |
| FUT11 (UniProt Q495W5) | -1.71 | -0.756 | 0.00651 |
| FXN (UniProt Q16595) | 0.688 | 0.447 | 1.14 |
| FXR1 (UniProt P51114) | 0.487 | 0.714 | 0.794 |
| FXR2 (UniProt P51116) | 0.0778 | 0.0347 | 0.783 |
| FYCO1 (UniProt Q9BQS8) | -0.321 | -0.354 | -0.152 |
| FYN (UniProt P06241) | 0.0671 | -0.0839 | -1.04 |
| FZD2 (UniProt Q14332) | -1.45 | -1.01 | 0.0158 |
| FZD6 (UniProt O60353) | -1.56 | -1.7 | 0.376 |
| G3BP1 (UniProt Q13283) | 0.523 | 0.664 | 0.753 |
| G3BP2 (UniProt Q9UN86) | -0.0281 | -0.411 | 0.561 |
| G3V3G9 (UniProt P40855) | -0.319 | -0.13 | -0.695 |
| G6PD (UniProt P11413) | 0.218 | 0.206 | 0.535 |
| GAA (UniProt P10253) | -0.154 | 0.311 | -0.00416 |
| GAB1 (UniProt Q13480) | -0.149 | 0.0158 | -0.0474 |
| GABARAP (UniProt O95166) | -0.21 | -0.417 | -0.223 |
| GABARAPL1 (UniProt Q9H0R8) | -1.22 | -2.02 | -0.849 |
| GABARAPL2 (UniProt P60520) | 0.14 | -0.266 | 0.209 |
| GABPA (UniProt Q06546) | -0.201 | -0.185 | 4.54 |
| GABPB1 (UniProt Q06547) | 0.17 | 0.498 | 5.01 |
| GADD45GIP1 (UniProt Q8TAE8) | 0.954 | 0.379 | 0.432 |
| GAK (UniProt O14976) | 0.338 | -0.0197 | 0.475 |
| GAL (UniProt P22466) | 0.135 | -0.122 | -0.0332 |
| GALE (UniProt Q14376) | 0.0359 | -0.161 | -2.31 |
| GALK1 (UniProt P51570) | -0.559 | -0.412 | -0.534 |

| Target | thermal stability z-score [1, 3] | thermal stability z-score ([1]; arsenate co-treatment: none) | thermal stability z-score [2] |
| --- | --- | --- | --- |
| GALK2 (UniProt Q01415) | 0.547 | -0.155 | -0.778 |
| GALNS (UniProt P34059) | 0.346 | 0.41 | 0.274 |
| GALNT1 (UniProt Q10472) | -0.568 | -0.256 | -0.187 |
| GALNT2 (UniProt Q10471) | -1.83 | -1.16 | 0.25 |
| GALNT6 (UniProt Q8NCL4) | -0.515 | -0.683 | -0.396 |
| GALNT7 (UniProt Q86SF2) | 0.205 | -0.0334 | 0.187 |
| GALNT10 (UniProt Q86SR1) | -0.462 | 0.0888 | 0.557 |
| GALT (UniProt P07902) | -0.362 | -0.325 | 0.174 |
| GAMT (UniProt Q14353) | -0.374 | 0.506 | -0.0271 |
| GAN (UniProt Q9H2C0) | 0.0625 | -0.31 | -0.167 |
| GANAB (UniProt Q14697) | -3.91 | -3.13 | 0.696 |
| GAPDH (UniProt P04406) | -1.1 | -0.00491 | -1.5 |
| GAPVD1 (UniProt Q14C86) | -0.367 | -0.206 | 0.0188 |
| GAR1 (UniProt Q9NY12) | -0.515 | -0.354 | -0.376 |
| GARS (UniProt P41250) | -0.224 | -0.223 | -0.919 |
| GART (UniProt P22102) | 0.221 | -0.0107 | -0.419 |
| GATAD2A (UniProt Q86YP4) | -0.0451 | -0.00448 | -0.412 |
| GATAD2B (UniProt Q8WXI9) | 0.511 | 0.315 | -0.539 |
| GATB (UniProt O75879) | 0.0276 | 0.115 | 0.0266 |
| GATSL2 (UniProt A6NHX0) | 0.724 | -1.44 | -0.242 |
| GBA (UniProt P04062) | -0.361 | -0.352 | 0.33 |
| GBAS (UniProt O75323) | 0.0991 | 0.0331 | -0.187 |
| GBE1 (UniProt Q04446) | -0.395 | 0.344 | -0.956 |
| GBF1 (UniProt Q92538) | -0.598 | -0.0839 | 0.452 |
| GCAT (UniProt O75600) | -0.752 | -1.04 | 1.38 |
| GCC1 (UniProt Q96CN9) | -0.192 | -0.169 | -0.179 |
| GCC2 (UniProt Q8IWJ2) | -0.88 | -0.098 | 0.827 |
